Results taken from US20190060463A1, “BRIDGED POLYETHYLENE GLYCOL-ALIPHATIC POLYESTER BLOCK COPOLYMER, PREPARATION METHOD FOR SAME, INTERMEDIATE OF SAME, AND USES THEREOF” (University Of Science And Technology Of China, priority 2015, published 2019).

Test system: MDA-MB-231 in situ breast cancer mouse tumor model
Assay: Inhibition of breast cancer growth by nanoparticles carrying docetaxel
Assay type: in vivo, nude mouse
Conditions: 70 μg DTXL (3.5 mg/kg), 3 administrations, period 7 days
Procedure: In this Example, a MDA-MB-231 in situ breast cancer mouse tumor model was used. The specific process of establishing the model was as follows. MDA-MB-231 cells were cultured in a DMEM complete medium. The cells were cultured with a serum-free DMEM 6 hours before the model was established, and digested with trypsin. The cells were collected by centrifugation at 1000 rpm, and resuspended with PBS to allow the density of the cells to be up to 2×10^7cells/mL. 100 μL of the cell suspension was injected to the second right breast of a nude mouse. In this Example, mPEG113-b-PDLLA72, mPEG113-Dlinkm-PDLLA70, and mPEG113-Dlink-PDLLA75 were used to produce drug loaded nanoparticles.
Nude mice, which were injected with breast cancer cells in situ, were bred in a SPF-level animal room for about 7 days, and visible tumors may be formed. The volume of the tumor was calculated according to the equation: V=0.5*a*b*b, wherein a refers to a longer diameter of the tumor and b refers to a shorter diameter of the tumor. When the tumor volume of the nude mouse reaches about 60 mm^3, treatment was performed. 20 g nude mice inoculated with MDA-MB-231 tumor were divided into 5 groups according to the following manners of treatment, and each group has 5 nude mice. […] A treatment period was 7 days and 3 administrations were performed. The tumor volume was measured every 3 days. […]

SMILES: CC(=O)O[C@@]12CO[C@@H]1C[C@H](O)[C@@]1(C)C(=O)[C@H](O)C3=C(C)[C@@H](OC(=O)[C@H](O)[C@@H](NC(=O)OC(C)(C)C)c4ccccc4)C[C@@](O)([C@@H](OC(=O)c4ccccc4)[C@H]21)C3(C)C [DTXL, docetaxel]
- inhibitory effect on tumor growth: no inhibitory effect
